Key:
[1] = tested on: MAC16 tumour-bearing mice; assay: Body weight, food and water intake in MAC16 tumour-bearing mice treated with lipid soluble alpha-trinositol (Example 5); format: in vivo, NMRI mice; conditions: for weight loss compared to the control group: 5 days
From the text: Materials. Lipid soluble alpha trinositol (1-D-tri-O-hexanoyl-myo-inositol 1,2,6-triphosphate) was formed by further esterification of 1-D-Myo-inositol 1,2,6-triphosphate.
(§1) Animals. Pure strain male NMRI mice (average body weight 25 g) were transplanted with fragments of the MAC16 tumour subcutaneously into the flank by means of a trochar, selected from donor animals with established weight loss (Bibby M C et al., Characterization of transplantable adenocarcinoma in the mouse colon producing cachexia in the recipient animals. J Natl Cancer Inst 78 (1987) 539-546). Transplanted animals were given a rat and mouse breeding diet (Special Diet Services, Witham, UK) and water at lib. Weight loss was evident 10 to 12 days after tumour implantation. Just prior to the development of weight loss […] were randomized into three groups of six animals each.
(§2) Administration of alpha-trinositol. A first experiment was started when the animals had lost about 5% of body weight. Aliquots of lipid soluble alpha-trinositol stock solution corresponding to doses of 6 mg/kg body weight and 8 mg/kg body weight for a 25 g animal were administered subcutaneously three times per day at 8.00, 12.00 and 16.00 hrs. The third group (control) was given an intravenous injection of 10 μl of PBS. Body weight (FIG. 26), tumour volume, and food (FIG. 27) and water (FIG. 28) intake were determined daily (for 5 days) after the last injection. Day 0 is the day of transplant and day 1 is the start of the experiment. The experiment was terminated on day 5 due to loss of controls.

MAC16 tumour = assay: Tumour volume in MAC16 tumour-bearing mice treated with lipid soluble alpha-trinositol (Example 5); format: in vivo, NMRI mice; conditions: 6 mg/kg and 8 mg/kg groups versus control
From the text: as §1, §2

SMILES: CCCCCC(=O)O[C@@H]1[C@@H](OC(=O)CCCCC)[C@@H](OP(=O)(O)O)[C@@H](OP(=O)(O)O)[C@H](OP(=O)(O)O)[C@H]1OC(=O)CCCCC [lipid soluble alpha trinositol, 1-D-tri-O-hexanoyl-myo-inositol 1,2,6-triphosphate]
- weight loss compared to the control group ([1]; 6 mg/kg s.c. three times per day): significantly lower weight loss
- weight loss compared to the control group ([1]; 8 mg/kg s.c. three times per day): significantly lower weight loss
- average weight loss in 5 days ([1]; highest concentration (8 mg/kg), control about 6 g): about 3 g
- increase in tumour volume (MAC16 tumour): slightly higher in the control group

Source: patent US20100261682A1, “Method and Means for the Treatment of Cachexia” (Bioneris AB, priority 2007, published 2010)
